This is an account of results in US20130244999A1, “Substituted Heterocyclic Compounds” (Incyte Corporation, priority 2008, published 2013).

T1 sequence (Q9H3N8 whole entry): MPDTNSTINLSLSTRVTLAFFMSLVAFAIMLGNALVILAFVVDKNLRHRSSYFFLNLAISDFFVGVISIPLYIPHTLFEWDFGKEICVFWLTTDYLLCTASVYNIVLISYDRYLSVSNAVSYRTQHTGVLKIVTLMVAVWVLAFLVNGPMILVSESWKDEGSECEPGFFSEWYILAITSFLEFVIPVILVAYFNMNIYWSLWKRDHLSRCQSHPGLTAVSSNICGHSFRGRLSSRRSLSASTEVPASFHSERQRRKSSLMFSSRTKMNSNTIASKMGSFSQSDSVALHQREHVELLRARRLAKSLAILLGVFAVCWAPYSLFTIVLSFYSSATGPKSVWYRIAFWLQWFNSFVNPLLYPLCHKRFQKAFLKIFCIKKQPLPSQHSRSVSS

The first experiment has as its target T1, histamine H4 receptor (Homo sapiens, UniProt Q9H3N8).
T1 construct: expressed in transfected cells; host or cells: HEK293SFM cells (membrane preparation)
Briefly: Inhibition of histamine H4 receptor (Table A1; H4 membrane binding assay).
Conditions: not given
The essentials:
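Radioligand binding was measured by filtration through PEI-treated GF/B filters with scintillation counting, using 1000× unlabeled ligand to define nonspecific binding. Membranes were prepared from HEK293SFM cells recombinantly expressing human H4 in ice-cold 50 mM Tris-HCl, pH 7.5, plus protease inhibitors.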
The inhibition is the share of the control response that was lost under treatment. The low end stands for a response near the control, the high end for a response far below the control. As to `CCOC(=O)Nc1ccc2c(c1)CN(c1cc(N3CCN(C)CC3)nc(N)n1)CC2` [Example 34, Ethyl {2-[2-amino-6-(4-methylpiperazin-1-yl)pyrimidin-4-yl]-1,2,3,4-tetrahydroisoquinolin-7-yl}carbamate], 1 µM produced 69% inhibition.

In the case of `CN1CCN(c2cc(N3CCc4ccc(NC(=O)N5CCCCC5)cc4C3)nc(N)n2)CC1` [Example 35, N-{2-[2-Amino-6-(4-methylpiperazin-1-yl)pyrimidin-4-yl]-1,2,3,4-tetrahydroisoquinolin-7-yl}piperidine-1-carboxamide], 1 µM produced 66% inhibition.

Staying with this experiment, now noted: histamine H4 receptor; "> a" = exceeds experiment limit.
For orientation: IC50 means the point on the concentration scale where inhibition reaches its midpoint. A high value points to a need for much substance. The compound `CN1CCN(c2cc(N3CCc4ccc(-c5cnn(C6CCNCC6)c5)cc4C3)nc(N)n2)CC1` [Example 13, 4-(4-Methylpiperazin-1-yl)-6-[7-(1-piperidin-4-yl-1H-pyrazol-4-yl)-3,4-dihydroisoquinolin-2 (1H)-yl]pyrimidin-2-amine] registered an IC50 of 35 nM.

Regarding `CN1CCN(c2cc(N3CCc4ccc(-n5cc(Cl)cn5)cc4C3)nc(N)n2)CC1` [Example 14, 4-[7-(4-Chloro-1,1-pyrazol-1-yl)-3,4-dihydroisoquinolin-2(1H)-yl]-6-(4-methylpiperazin-1-yl)pyrimidin-2-amine], the IC50 is 223 nM.

`CN1CCN(c2cc(N3Cc4ccccc4C[C@H]3CO)nc(N)n2)CC1` [Example 15, {(3S)-2-[2-Amino-6-(4-methylpiperazin-1-yl)pyrimidin-4-yl]-1,2,3,4-tetrahydroisoquinolin-3-yl}methanol]: the IC50 is 145 nM.

Compound `Cc1cccc(Nc2ccc3c(c2)CN(c2cc(N4CCN(C)CC4)nc(N)n2)CC3)n1` [Example 16, 2-[2-Amino-6-(4-methylpiperazin-1-yl)pyrimidin-4-yl]-N-(6-methylpyridin-2-yl)-1,2,3,4-tetrahydroisoquinolin-7-amine] returned an IC50 of 543 nM. This IC50 is about 3.7-fold higher than that of the compound before.

In turn, `CN1CCN(c2cc(N3CCc4ccc(Oc5ccccc5Cl)cc4C3)nc(N)n2)CC1` [Example 17, 4-[7-(2-Chlorophenoxy)-3,4-dihydroisoquinolin-2(1H)-yl]-6-(4-methylpiperazin-1-yl)pyrimidin-2-amine] showed an IC50 of 285 nM. This IC50 is about 1.9-fold lower than that of the compound before.

For `CN1CCN(c2cc(N3CCc4ccc(-c5ccc(C(=O)NCc6ccccn6)nc5)cc4C3)nc(N)n2)CC1` [Example 18, 5-{2-[2-Amino-6-(4-methylpiperazin-1-yl)pyrimidin-4-yl]-1,2,3,4-tetrahydroisoquinolin-7-yl}-N-(pyridin-2-ylmethyl)pyridine-2-carboxamide], the IC50 came out at 65 nM.

As to `CN1CCN(c2cc(N3CCc4ccc(-c5ccc(C(=O)NCC(C)(C)O)nc5)cc4C3)nc(N)n2)CC1` [Example 19, 5-{2-[2-Amino-6-(4-methylpiperazin-1-yl)pyrimidin-4-yl]-1,2,3,4-tetrahydroisoquinolin-7-yl}-N-(2-hydroxy-2-methylpropyl)pyridine-2-carboxamide], the IC50 is 110 nM.

On to `CN1CCN(c2cc(N3CCc4ccc(-c5ccc(C(=O)N[C@H]6CC[C@H](O)CC6)nc5)cc4C3)nc(N)n2)CC1` [Example 20, 5-{2-[2-Amino-6-(4-methylpiperazin-1-yl)pyrimidin-4-yl]-1,2,3,4-tetrahydroisoquinolin-7-yl}-N-(trans-4-hydroxycyclohexyl)pyridine-2-carboxamide], for which the IC50 turned out to be 113 nM. This IC50 and that of the compound before are within 1.5-fold of each other.

The compound `CN1CCN(c2cc(N3CCCc4ccc(O)cc43)nc(N)n2)CC1` [Example 21, 1-[2-Amino-6-(4-methylpiperazin-1-yl)pyrimidin-4-yl]-1,2,3,4-tetrahydroquinolin-7-ol] came in with an IC50 of 181 nM.

The compound `CN1CCN(c2cc(N3CCc4ccc(Oc5ccc(C#N)c(Cl)c5)cc4C3)nc(N)n2)CC1` [Example 22, 4-({2-[2-Amino-6-(4-methylpiperazin-1-yl)pyrimidin-4-yl]-1,2,3,4-tetrahydroisoquinolin-7-yl}oxy)-2-chlorobenzonitrile] returned an IC50 of 367 nM. This IC50 lies about 2-fold higher than the previous one.

Take `CN1CCN(c2cc(N3Cc4ccccc4CC3=O)nc(N)n2)CC1` [Example 23, 2-[2-Amino-6-(4-methylpiperazin-1-yl)pyrimidin-4-yl]-1,4-dihydroisoquinolin-3(2H)-one]: the IC50 was 158 nM.

In turn, `CN1CCN(c2cc(N3CCc4ccc(C(=O)N5CCC(c6ccccc6)C5)cc4C3)nc(N)n2)CC1` (stereo not shown) [Example 24, 4-(4-Methylpiperazin-1-yl)-6-[7-[(3-phenylpyrrolidin-1-yl)carbonyl]-3,4-dihydroisoquinolin-2(1H)-yl]pyrimidin-2-amine] yielded an IC50 of 966 nM.

With `CN1CCN(c2cc(N3CCc4ccc(C(=O)N(C)Cc5cccc(F)c5)cc4C3)nc(N)n2)CC1` [Example 25, 2-[2-Amino-6-(4-methylpiperazin-1-yl)pyrimidin-4-yl]-N-(3-fluorobenzyl)-N-methyl-1,2,3,4-tetrahydroisoquinoline-7-carboxamide], the IC50 was determined as 260 nM.

Consider `CN1CCN(c2cc(N3CCc4ccc(C(=O)N5Cc6ccccc6C5)cc4C3)nc(N)n2)CC1` [Example 26, 4-[7-(1,3-Dihydro-2H-isoindol-2-ylcarbonyl)-3,4-dihydroisoquinolin-2(1H)-yl]-6-(4-methylpiperazin-1-yl)pyrimidin-2-amine], for which the IC50 came to 244 nM.

For the compound `CN1CCN(c2cc(N3CCc4ccc(C(=O)N(C)C)cc4C3)nc(N)n2)CC1` [Example 27, 2-[2-Amino-6-(4-methylpiperazin-1-yl)pyrimidin-4-yl]-N,N-dimethyl-1,2,3,4-tetrahydroisoquinoline-7-carboxamide], the IC50 amounted to 670 nM.

On to `CN1CCN(c2cc(N3CCc4ccc(C(=O)NC5CCCC5)cc4C3)nc(N)n2)CC1` [Example 28, 2-[2-Amino-6-(4-methylpiperazin-1-yl)pyrimidin-4-yl]-N-cyclopentyl-1,2,3,4-tetrahydroisoquinoline-7-carboxamide], for which the IC50 came to 754 nM.

On to `CN1CCN(c2cc(N3CCc4ccc(C(=O)N5CCCC5)cc4C3)nc(N)n2)CC1` [Example 29, 4-(4-Methylpiperazin-1-yl)-6-[7-(pyrrolidin-1-ylcarbonyl)-3,4-dihydroisoquinolin-2 (1H)-yl]pyrimidin-2-amine], for which the IC50 was 229 nM.

In the case of `CCOC(=O)N1CCN(c2ccc3c(c2)CN(c2cc(N4CCN(C)CC4)nc(N)n2)CC3)CC1` [Example 30, Ethyl 4-{2-[2-amino-6-(4-methylpiperazin-1-yl)pyrimidin-4-yl]-1,2,3,4-tetrahydroisoquinolin-7-yl}piperazine-1-carboxylate], the IC50 was found to be 282 nM.

`CC(=O)N1CCN(c2ccc3c(c2)CN(c2cc(N4CCN(C)CC4)nc(N)n2)CC3)CC1` [Example 31, 4-[7-(4-Acetylpiperazin-1-yl)-3,4-dihydroisoquinolin-2 (1H)-yl]-6-(4-methylpiperazin-1-yl)pyrimidin-2-amine] displayed an IC50 of 299 nM.

The compound `CN1CCN(c2cc(N3CCc4ccc(N5CCN(C(=O)c6ccco6)CC5)cc4C3)nc(N)n2)CC1` [Example 32, 4-{7-[4-(2-Furoyl)piperazin-1-yl]-3,4-dihydroisoquinolin-2(1H)-yl}-6-(4-methylpiperazin-1-yl)pyrimidin-2-amine] showed an IC50 of 178 nM.

Compound `CN1CCN(c2cc(N3CCc4ccc(N5CCN(C(=O)Nc6ccc(Cl)cc6)CC5)cc4C3)nc(N)n2)CC1` [Example 33, 4-{2-[2-Amino-6-(4-methylpiperazin-1-yl)pyrimidin-4-yl]-1,2,3,4-tetrahydroisoquinolin-7-yl}-N-(4-chlorophenyl)piperazine-1-carboxamide] returned an IC50 of 266 nM.

On to `CN1CCN(c2cc(N3CCc4ccc(N5CCC(C#N)CC5)cc4C3)nc(N)n2)CC1` [Example 36, 1-{2-[2-Amino-6-(4-methylpiperazin-1-yl)pyrimidin-4-yl]-1,2,3,4-tetrahydroisoquinolin-7-yl}piperidine-4-carbonitrile], for which the IC50 was 393 nM. This IC50 and that of the compound before are within 1.5-fold of each other.

The compound `CN1CCN(c2cc(N3CCc4ccc(N5CCC(O)(c6ccccc6)CC5)cc4C3)nc(N)n2)CC1` [Example 37, 1-{2-[2-Amino-6-(4-methylpiperazin-1-yl)pyrimidin-4-yl]-1,2,3,4-tetrahydroisoquinolin-7-yl}-4-phenylpiperidin-4-ol] returned an IC50 of 579 nM. The IC50 values of the last two compounds are within 1.5-fold of each other.

For `CN1CCN(c2cc(N3CCc4ccc(N5CCC(c6ccncc6)CC5)cc4C3)nc(N)n2)CC1` [Example 38, 4-(4-Methylpiperazin-1-yl)-6-[7-(4-pyridin-4-ylpiperidin-1-yl)-3,4-dihydroisoquinolin-2(1H)-yl]pyrimidin-2-amine], the IC50 was 186 nM.

`CNC(=O)c1ccc(C2CCN(c3ccc4c(c3)CN(c3cc(N5CCN(C)CC5)nc(N)n3)CC4)CC2)cc1` [Example 39, 4-(1-{2-[2-Amino-6-(4-methylpiperazin-1-yl)pyrimidin-4-yl]-1,2,3,4-tetrahydroisoquinolin-7-yl}piperidin-4-yl)-N-methylbenzamide] came in with an IC50 of 51 nM.

The compound `CN1CCN(c2cc(N3CCc4ccc(N5CCC(c6ccc(C(N)=O)cc6)CC5)cc4C3)nc(N)n2)CC1` [Example 40, 4-(1-{2-[2-Amino-6-(4-methylpiperazin-1-yl)pyrimidin-4-yl]-1,2,3,4-tetrahydroisoquinolin-7-yl}piperidin-4-yl)benzamide] displayed a concentration for half-maximal inhibition (IC50) of 39 nM.

The compound `CN1CCN(c2cc(N3CCc4ccc(N5CCC(c6ccn(C)c(=O)c6)CC5)cc4C3)nc(N)n2)CC1` [Example 41, 4-(1-{2-[2-Amino-6-(4-methylpiperazin-1-yl)pyrimidin-4-yl]-1,2,3,4-tetrahydroisoquinolin-7-yl}piperidin-4-yl)-1-methylpyridin-2(1H)-one] came in with an IC50 of 38 nM. This IC50 and that of the compound before are within 1.5-fold of each other.

Compound `CN1CCN(c2cc(N3CCc4ccc(N5CCC(c6ccc(=O)n(C)c6)CC5)cc4C3)nc(N)n2)CC1` [Example 42, 5-(1-{2-[2-Amino-6-(4-methylpiperazin-1-yl)pyrimidin-4-yl]-1,2,3,4-tetrahydroisoquinolin-7-yl}piperidin-4-yl)-1-methylpyridin-2(1H)-one] showed an IC50 of 81 nM.

For the compound `CN1CCN(c2cc(N3CCc4ccc(-c5ccn(C)c(=O)c5)cc4C3)nc(N)n2)CC1` [Example 43, 4-{2-[2-Amino-6-(4-methylpiperazin-1-yl)pyrimidin-4-yl]-1,2,3,4-tetrahydroisoquinolin-7-yl}-1-methylpyridin-2(1H)-one], the IC50 was 99 nM.
